# Values of other authors as cited in patent publication US12691066B2, “Dual-targeting biomimetic liposome with elemene (ELE) and cabazitaxel (CTX), and preparation method and use thereof” (HANGZHOU NORMAL UNIVERSITY, priority 2021, dated 2026).
structure (smiles),measurement,value
CO[C@H]1C(=O)[C@]2(C)[C@@H](OC)C[C@H]3OC[C@@]3(OC(C)=O)[C@H]2[C@H](OC(=O)c2ccccc2)[C@]2(O)C[C@H](OC(=O)[C@H](O)[C@@H](NC(=O)OC(C)(C)C)c3ccccc3)C(C)=C1C2(C)C [Cabazitaxel],solubility in ethanol,soluble
same,solubility in water,almost insoluble
